Legend:
[1] = test system: human stomach cancer cell line SNU-16 xenograft; experiment: Antitumor effect in SNU-16 subcutaneous xenograft model in mice; type: in vivo; conditions: oral, once a day for 11 days, tumor volume last day
From the text: Human stomach cancer cell line SNU-16, which had been cultured in an RPMI-1640 medium containing 10% FBS, and penicillin and streptomycin, were adjusted to a concentration of 1×10^8 cells/mL with Hanks' Balanced Salt Solution (GIBCO #24020) to prepare a cell suspension, and the suspension was mixed with […] (BD Biosciences, Cat#354234) in a ratio of 1:1 to prepare a cell suspension in a concentration of 5×10^7 cells/ml. The cell suspension was inoculated in a volume of 100 ut into a subcutaneous part of a right flank of nude mice, 6 to 7 weeks of ages (BALB/cAiel-nu/nu, female, Clea Japan Inc.). Seven days after cell inoculation, the shortest diameter and the longest diameter of a tumor in each mouse were measured by using an electronic digital caliper (Digimatie™ caliper, Mitutoyo Corporation), so as to calculate the volume of the tumor in accordance with the following calculation formula: Tumor volume(mm^3)Longest diameter(mm)×Shortest diameter(mm)×Shortest diameter(mm)/2
(§1) On the basis of the volumes of tumors obtained on the first day of administration, the nude mice were grouped such that averages of the tumor volumes were substantially equal among the groups. Each test substance was dissolved in DMSO, Tween 80 was added thereto to prepare a solution in a 10-fold concentration and the thus prepared solution was stored at the freezer before use. Immediately before the administration, the stock solution was diluted with a 5% glucose solution to obtain a final administration solution (in which a ratio in % among DMSO, Tween 80 and the 5% glucose solution was 3.5:6.5:90). Each evaluation sample was orally administered to test substance administration group at a volume of 0.4 mL per 20 g of body weight once a day continuously for 11 days, and in a control group, an administration solvent was orally administered under the same conditions. Incidentally, the experiment was conducted on groups each consisting of 5 mice.
(§2) With respect to each of the control group and test substance administration group, a ratio of the weight measured on the final day to the weight measured on the first day (relative body weight: RBW) was calculated. If a ratio of the RBW of the test substance administration group/the RBW of the control group is 0.9 or mom, the corresponding test substance administration group was defined as a well-tolerated. In the test substance administration group thus defined as well-tolerated, a ratio of the tumor volume of the test substance-dosing group to the tumor volume of the control group obtained on the last day (TIC) (%) was calculated, and shown in Table 21.

[2] = test system: human lung cancer cell line NCI-H1581 xenograft; experiment: Antitumor effect in NCI-H1581 subcutaneous xenograft model in mice; type: in vivo; conditions: oral, once a day for 11 days, tumor volume last day
Protocol: Human lung cancer cell line NCI-H1581, which had been cultured in RPMI-1640 medium containing 10% FBS, and penicillin and streptomycin, were adjusted to a concentration of 1×10^8 cells/mL with Hanks' Balanced Salt Solution(GIBCO #24020) to prepare a cell suspension, and the suspension was mixed with […] in a ratio of 1:1 to prepare a cell suspension in a concentration of 5×10^7 cells/mL. The cell suspension was inoculated in a volume of 100 μL into a subcutaneous part of a right flank of each of nude mice, 6 to 7 weeks of ages (BALB/cAJcl-nu/nu, female, Clea Japan Inc.). Ten to 11 days after the cell inoculation, the shortest diameter and the longest diameter of a tumor in each mouse were measured by using an electronic digital caliper (Digimatic™ caliper, Mitutoyo Corporation), so as to calculate the volume of the tumor in accordance with the following calculation formula: Tumor volume(mm^3)=Longest diameter(mm)×Shortest diameter(mm)×Shortest diameter(mm)/2
as §1
as §2, with “more,” for “mom,”, “22.” for “21.”

[3] = test system: human stomach cancer cell line SNU-16 (FGFR2 gene amplification); experiment: SNU-16 growth inhibition assay; type: cell-based; conditions: Homo sapiens, SNU-16, 72 h, read-out: SNU-16 (IC50 (nM)), cell growth, 3 days, Cell Counting Kit-8
Protocol: In this assay, the growth inhibitory activity of a test substance in a human stomach cancer cell line harboring FGFR2 gene amplification is measured.
Then, 10 μL of Cell Counting Kit-8 (Dojindo Laboratories, CK04) was added to each well, and the resultant was incubated for 1 to 2 hours in a 5% CO2 incubator (37° C.) to cause a color reaction. The absorbance value was measured with ENVISION™ (PerkinElmer Co., Ltd.) at 450 nm.

[4] = test system: normal human umbilical vein endothelial cells (HUVEC); experiment: HUVEC growth inhibition assay (VEGF-induced); type: cell-based; conditions: Homo sapiens, HUVEC, 72 h, read-out: HUVEC (IC50 (nM)), growth in the presence of VEGF 10 ng/mL, 3 days
Protocol: The absorbance value was measured with ENVISION™ (PerkinElmer Co., Ltd.) at 450 nm. The absorbance values of the wells without adding the test substance but with VEGF addition was defined as 100% and the absorbance values of the wells with neither the test substance nor VEGF addition was defined as 0%.

Structure (SMILES)	T/C (%) ([1]; 6.25 mg/kg)	T/C (%) ([1]; 12.5 mg/kg)	T/C (%) ([1]; 25 mg/kg)	IC50 [3] [nM]	IC50 [4] [nM]	also measured
CCN1CCC(c2ccc(C(=O)Nc3cc(Oc4cc5ccn(C(=O)NC)c5cc4OC)ccn3)cc2)CC1 [Example 2, 5-((2-(4-(1-Ethylpiperidin-4-yl)benzamide)pyridin-4-yl)oxy)-6-methoxy-N-methyl-1H-indole-1-carboxamide]	51	28	18			T/C (%) ([2]; 6.25 mg/kg): 36%; T/C (%) ([2]; 12.5 mg/kg): 19%; T/C (%) ([2]; 25 mg/kg): 11%
CNC(=O)n1ccc2cc(Oc3ccnc(NC(=O)c4ccc(C5CCN(C[C@H](C)O)CC5)cc4)c3)c(OC)cc21 [Example 4, (S)-5-((2-(4-(1-(2-Hydroxypropyl)piperidin-4-yl)benzamide)pyridin-4-yl)oxy)-6-methoxy-N-methyl-1H-indole-1-carboxamide]	40	27	15			
CNC(=O)n1ccc2cc(Oc3ccnc(NC(=O)c4ccc(C5CCN(C)CC5)cc4)c3)c(OCCOC)cc21 [Example 21, 6-(2-Methoxyethoxy)-N-methyl-5-((2-(4-(1-methylpiperidin-4-yl)benzamide)pyridin-4-yl)oxy)-1H-indole-1-carboxamide]	49	26	16			T/C (%) ([1]; 50 mg/kg): 7%; T/C (%) ([2]; 6.25 mg/kg): 36%; T/C (%) ([2]; 12.5 mg/kg): 18%; T/C (%) ([2]; 25 mg/kg): 10%; T/C (%) ([2]; 50 mg/kg): 6%
CNC(=O)n1ccc2cc(Oc3ccnc(NC(=O)c4ccc(C5CCN(CCO)CC5)cc4)c3)c(OC)cc21 [Example 3, 5-((2-(4-(1-(2-Hydroxyethyl)piperidin-4-yl)benzamide)pyridin-4-yl)oxy)-6-methoxy-N-methyl-1H-indole-1-carboxamide]	45	27	19			
CCOCCOc1cc2c(ccn2C(=O)NC)cc1Oc1ccnc(NC(=O)c2ccc(C3CCN(CCO)CC3)cc2)c1 [Example 25, 6-(2-Ethoxyethoxy)-5-((2-(4-(1-(2-hydroxyethyl)piperidin-4-yl)benzamide)pyridin-4-yl)oxy)-N-methyl-1H-indole-1-carboxamide]	31	23	14	3.8	191	T/C (%) ([1]; 50 mg/kg): 12%
CCOc1cc2c(ccn2C(=O)NC)cc1Oc1ccnc(NC(=O)c2ccc(C3CCN(CC)CC3)cc2)c1 [Example 16, 6-Ethoxy-5-((2-(4-(1-ethylpiperidin-4-yl)benzamide)pyridin-4-yl)oxy)-N-methyl-1H-indole-1-carboxamide]	39	21	15			T/C (%) ([2]; 6.25 mg/kg): 50%; T/C (%) ([2]; 12.5 mg/kg): 25%; T/C (%) ([2]; 25 mg/kg): 15%
CCOCCOc1cc2c(ccn2C(=O)NC)cc1Oc1ccnc(NC(=O)c2ccc(CN3CCC[C@@H]3CO)cc2)c1 [Example 104]				13.7	600	
CNC(=O)n1ccc2cc(Oc3ccnc(NC(=O)c4ccc(CN5CCC(O)CC5)cc4)c3)c(OC(C)C)cc21 [Example 70]				22.4	610	
CNC(=O)n1ccc2cc(Oc3ccnc(NC(=O)c4ccc(C5CN(CC(C)(C)O)C5)cc4)c3)c(OC)cc21 [Example 48]				11.7	77.8	
CNC(=O)n1ccc2cc(Oc3ccnc(NC(=O)c4ccc(CN5CCC(O)CC5)cc4)c3)c(OC(F)F)cc21 [Example 19, 6-(Difluoromethoxy)-5-((2-(4-((4-hydroxypiperidin-1-yl)methyl)benzamide)pyridin-4-yl)oxy)-N-methyl-1H-indole-1-carboxamide]				14.1	151	
CNC(=O)n1ccc2cc(Oc3ccnc(NC(=O)c4ccc(CN5CCC(O)CC5)s4)c3)c(OCCOC)cc21 [Example 86]				6.2	250	
CCOCCOc1cc2c(ccn2C(=O)NC)cc1Oc1ccnc(NC(=O)c2ccc(C3CN(CC)C3)cc2)c1 [Example 26, 6-(2-Ethoxyethoxy)-5-((2-(4-(1-ethylazetidin-3-yl)benzamide)pyridin-4-yl)oxy)-N-methyl-1H-indole-1-carboxamide]	45	36	22	5.6	258	T/C (%) ([1]; 50 mg/kg): 27%
CNC(=O)n1ccc2cc(Oc3ccnc(NC(=O)c4ccc(CN5CC[C@@H](O)C5)cc4)c3)c(OCCCOC)cc21 [Example 121]				14.9	518	
CNC(=O)n1ccc2cc(Oc3ccnc(NC(=O)c4ccc(C5CCN(C[C@@H](C)O)CC5)cc4)c3)c(OCCCOC)cc21 [Example 125]				7.2	203	
CNC(=O)n1ccc2cc(Oc3ccnc(NC(=O)c4ccc(CN5CCC[C@@H]5CO)s4)c3)c(OC)cc21 [Example 34]				14	195	
CCN1CC(c2ccc(C(=O)Nc3cc(Oc4cc5ccn(C(=O)NC)c5cc4OC)ccn3)cc2)C1 [Example 49]				9.6	163	
CNC(=O)n1ccc2cc(Oc3ccnc(NC(=O)c4ccc(C5CN(C[C@@H](C)O)C5)cc4)c3)c(OCCOC)cc21 [Example 80]				3.8	182	
CNC(=O)n1ccc2cc(Oc3ccnc(NC(=O)c4cnn(C5CCN(C[C@@H](C)O)CC5)c4)c3)c(OC)cc21 [Example 44]				16.3	392	
CNC(=O)n1ccc2cc(Oc3ccnc(NC(=O)c4ccc(C5CCN(C(C)C)CC5)cc4)c3)c(OCCOC)cc21 [Example 23, 5-((2-(4-(1-Isopropylpiperidin-4-yl)benzamide)pyridin-4-yl)oxy)-6-(2-methoxyethoxy)-N-methyl-1H-indole-1-carboxamide]				6.5	300	
CNC(=O)n1ccc2cc(Oc3ccnc(NC(=O)c4ccc(CN5CCC(O)CC5)cc4)c3)c(OC)cc21 [Example 9, 5-((2-(4-((4-Hydroxypiperidin-1-yl)methyl)benzamide)pyridin-4-yl)oxy)-6-methoxy-N-methyl-1H-indole-1-carboxamide]			55			T/C (%) ([1]; 50 mg/kg): 39%; T/C (%) ([1]; 100 mg/kg): 30%
CNC(=O)n1ccc2cc(Oc3ccnc(NC(=O)c4ccc(CN5CC[C@@H](O)C5)cc4)c3)c(OC)cc21 [Example 53]				14.5	401	
CNC(=O)n1ccc2cc(Oc3ccnc(NC(=O)c4ccc(CCN5CCC(O)CC5)cc4)c3)c(OC)cc21 [Example 56]				15	96.8	
CNC(=O)n1ccc2cc(Oc3ccnc(NC(=O)c4ccc(C5CCN(C)CC5)cc4)c3)c(OCCCF)cc21 [Example 76]				7.5	248	

Source: patent US8933099B2, “Monocyclic pyridine derivative” (Eisai R&D Management Co., Ltd., priority 2013, dated 2015)
